Laboratory results as given in patent US11826373B2, “Methods for treatment of diseases” (Galera Labs, LLC, priority 2011, dated 2023).

What was measured:
[1] = GC4403 28-day IV toxicity in dog; format: in vivo; settings: both sexes, dog, in vivo; beagle dogs, IV, 28 consecutive days; read-out: no observed adverse effect level (NOAEL)
Experimental: (§1) GC4403 was evaluated in a Good Laboratory Practice (GLP)-regulated study in beagle dogs. GC4403 was administered intravenously (IV) via slow bolus dose, once daily, to beagle dogs for 28 consecutive days. GC4403 was administered IV into the cephalic vein (0.5 mL/kg) to 3 groups of dogs (4 animals/sex/group) at dosages of 1.0, 3.0 and 6.0 mg/kg with a fourth group receiving vehicle (26 mM sodium bicarbonate in normal saline). […] There were no test article-related differences in group mean hematology, coagulation, or clinical chemistry parameters or urinalysis parameters after 28 days of treatment in any dosing group. At necropsy on day 29, there were neither test-article related gross macroscopic findings nor test-article-related differences in organ weight. No test-article-related histopathological lesions were present. There were no test-article-related electrocardiology (ECG) effects when evaluated on day 27.

beagle dogs [2] = test: GC4403 28-day IV toxicity in dog; format: in vivo; settings: 28 days
Experimental: as §1

SD rats = test: Rat GC4403 7-day intravenous toxicity; format: in vivo
Experimental: GC4403 was Studied in a GLP toxicology study in which it was administered in 26 mM sodium bicarbonate/0.9% sodium chloride to SD rats (10/sex/group) IV (slow bolus 1 mL/kg/minute) at dosages of 0, 1, 3 or 10 mg/kg/day for 7 days (On Day 1, 1/10 male rats receiving 10 mg/kg/day died). The dosage was therefore decreased to 8 mg/kg/day on Day 2 for all surviving animals for the remainder of the study, and the original 10 mg/kg/day group was re-designated as the 8 mg/kg/day group. On Day 4, two females from the 8 mg/kg/day group also died. Clinical signs immediately following dose administration of 8 mg/kg/day were twitching, labored breathing, body drop and prostration. At the scheduled 1-hour observation time, animals appeared normal. Males and females given 8 mg/kg/day had decreased body weight gains, which were accompanied by decreased food consumption in the males only. […] Surviving rats were sacrificed, and all rats sacrificed or found dead were necropsied.

[3] = 14-day repeat dose toxicity of GC4419 in dog; format: in vivo, beagle dogs; settings: both sexes, dog, in vivo, beagle dogs, IV over 15 minutes once daily
Experimental: (§2) GC4419 was evaluated in a GLP study in beagle dogs. GC4419 was administered intravenously (IV) over 15 minutes, once daily, to beagle dogs for 14 consecutive days. GC4419 was administered IV into the cephalic vein (4 mL/kg) to 3 groups of dogs (4 animals/sex/group) at dosages of 2.5, 5.0 and 7.5 mg/kg with a fourth group receiving vehicle (26 mM sodium bicarbonate in normal saline). […] All animals recovered from these effects. There were no test-article-related differences in group mean hematology, coagulation, or clinical chemistry parameters or urinalysis parameters after 14 days of treatment in any dosing group. At necropsy on day 15, there were neither test-article related gross macroscopic findings nor test-article-related differences in organ weight. No test-article-related histopathological lesions were present.

beagle dogs [4] = test: 14-day repeat dose toxicity of GC4419 in dog; format: in vivo; settings: beagle dogs, 2.5, 5.0 and 7.5 mg/kg IV over 15 minutes, 14 days
Experimental: as §2

Rats = test: Rat GC4419 7-day IV study; format: in vivo
Experimental: A GLP toxicity study with GC4419 in bicarbonate buffer was performed. Rats (5/sex/group) were administered GC4419 as a 15 minute IV injection (4 mL/kg) at 0, 5, 10 or 15 mg/kg for 7 consecutive days. The control group received bicarbonate buffer. Evaluations for compound-related effects were based on clinical observations, body weight and food consumption. There were no deaths during the study and there were no signs of significant compound effects at any dosage.

healthy subjects = test: Human Phase 1 single rising dose safety and tolerability of GC4419; format: in vivo
Experimental: (§3) A human clinical trial entitled, “A Double-Blind, Placebo-Controlled, Single Rising Dose Study to Evaluate the Safety and Tolerability and Determine the Pharmacokinetics of M40419 Administered as a I5-Minute Intravenous Infusion in Healthy Subjects,” was conducted on 54 subjects. This was a single center, randomized, placebo-controlled, sequential panel, single dose safety, tolerability, and pharmacokinetic study of GC4419 administered as a 75-mL IV infusion over 15 minutes in escalating doses of 10 mg, 15 mg, 22 mg, 33 mg, 50 mg, 75 mg, and 112 mg. The study consisted of two phases: the first phase was a dose escalation with six subjects (four active and two placebo) in each cohort to determine a Maximum Tolerated Dose (MTD); the second phase was a repeat of the MTD dose in 12 subjects (eight active drug and four placebo) to confirm the MTD or safety of highest dose tested. The study population was comprised of 54 healthy male and female subjects (36 males, 18 females) between the ages of 18 and 50 years considered eligible on the basis of inclusion and exclusion criteria. There were four active and two placebo subjects for each dose level in the escalating dose phase of the study, and eight active and four placebo subjects for the confirmation of MTD phase.
All subjects receiving a dose of study medication were evaluated for safety. The safety of the drug product was assessed based on: treatment-emergent adverse events (TEAEs), clinical laboratory evaluations, vital signs, 12-lead electrocardiograms (ECGs) and standard ECG parameters including PR, QRS, QT, and QTc intervals.

[5] = Human Phase 1 pharmacokinetics of GC4419; settings: both sexes, in vivo
Experimental: as §3
As part of the conduct of the Phase 1a clinical studies for GC4403 and GC4419 described in the Examples herein, plasma samples were collected for measuring the concentration of parent compounds (GC4403 and GC4419) after intravenous infusion. Table 3 illustrates the pharmacokinetic parameter, area under the curve (AUC), representing the total exposure of the subject to the drugs over time.

[6] = Activity toward hydrogen peroxide; format: biochemical
[7] = single intravenous infusion over 15 minutes, healthy subjects

## [Cl][Mn-5]1234([Cl])[n+]5c6cccc5C[NH+]1[C@@H]1CCCC[C@H]1[NH+]2CC[NH+]3[C@@H]1CCCC[C@H]1[NH+]4C6 (stereo partly drawn) [GC4403]
[1]
  NOAEL at 28 days: 1 mg/kg/day
Beagle dogs [2]; beagle dogs, 1.0, 3.0 and 6.0 mg/kg IV
  mortality: No animals died
Beagle dogs [2]; both, beagle, dog, in vivo, iv
  no observed toxic effect level (NOTEL): 3.0 mg/kg/day
SD rats; 8 mg/kg/day group, Day 4
  mortality, females died: two
SD rats; 10 mg/kg/day, Day 1
  mortality, male rats died: 1/10
SD rats; rat, IV slow bolus injection, 7 days
  no observed toxic event level (NOTEL): 3 mg/kg/day

## [Cl][Mn-5]1234([Cl])[n+]5c6cccc5C[NH+]1[C@H]1CCCC[C@@H]1[NH+]2CC[NH+]3[C@H]1CCCC[C@@H]1[NH+]4C6 (stereo partly drawn) [GC4419]
[3]
  NOAEL at 14 days: 5 mg/kg/day
Beagle dogs [4]
  mortality: No animals died
Rats; males given 15 mg/kg/day, by Day 8
  decrease in body weight: approximately 10%
Rats; rats, 5, 10 or 15 mg/kg, 7 days
  mortality: no deaths
Rats; rats, males and females, 15 minute IV injection, 7 consecutive days
  NOTEL: 15 mg/kg
Healthy subjects; 30 of 36 subjects who received trial material, 10-112 mg
  subjects who experienced at least one TEAE: 83.3%
Healthy subjects; healthy subjects
  tolerability of single doses up to 112 mg: no serious adverse events
  tolerability of single intravenous doses from 10 mg to 50 mg: safe and well tolerated with no adverse events
Healthy subjects; [7]
  MTD initially defined in the dose escalation phase: 75 mg
  maximum tolerated dose (MTD), final: 50 mg
[5]; 10 mg IV over 15 minutes
  AUC(0-inf): 741 ng·h/mL
[5]; 15 mg IV over 15 minutes
  AUC(0-inf): 1300 ng·h/mL
[5]; 22 mg IV over 15 minutes
  AUC(0-inf): 2000 ng·h/mL
[5]; 33 mg IV over 15 minutes
  AUC(0-inf): 3190 ng·h/mL
[5]; 50 mg IV over 15 minutes
  AUC(0-inf): 4560 ng·h/mL
[5]; 75 mg IV over 15 minutes
  AUC(0-inf): 6490 ng·h/mL
[5]; 112 mg IV over 15 minutes
  AUC(0-inf): 10400 ng·h/mL
[6]
  activity toward hydrogen peroxide: no detectable activity
